Source: US9420787B2, “Method for controlling noxious organisms” (SUMITOMO CHEMICAL COMPANY, LIMITED, priority 2012, dated 2016)

Columns and labels:
Type in all cases: in vivo
Ivyleaf morningglory [1] = experiment: Herbicidal effect in pots sown with ethaboxam-treated cotton seeds, PPO inhibitor sprayed on soil (Example 3); settings: cotton pot, day 7 after sowing, scale 0 to 100
Protocol: In a plastic cup of 100 mm in inside diameter and 40 mm in height, 5.7 mg of an ethaboxam suspension (a suspension containing 34.6% of ethaboxam, manufactured by Valent USA Corp.) and 40 cotton seeds were placed. The plastic cup was shaken by the hand so that the ethaboxam suspension was attached to the cotton seeds. The weight of 40 cotton seeds was 6.6 g, and the amount of ethaboxam by the above treatment was calculated as 30 g per 100 kg of the cotton seeds. In the same manner, 56.7 mg of the ethaboxam suspension was attached to 40 cotton seeds. The weight of 40 cotton seeds was 6.55 g, and the amount of ethaboxam by the above treatment was calculated as 300 g per 100 kg of the cotton seeds. A soil was packed in a plastic pot of 120 mm in inside diameter×80 mm in height. The above cotton seeds were sown in this pot at a rate of two seeds per pot, and the seeds of ivyleaf morningglory were sown at a rate of four seeds per pot. On the day of sowing the cottonseeds and after sowing the cotton seeds, an aqueous diluted solution (113 mg of active ingredient/L or 225 mg of active ingredient/L) of a flumioxazin granular wettable powder (a granular wettable powder containing 51% of flumioxazin, trade name: Valor SX, manufactured by Valent USA), an aqueous diluted solution (226 mg of active ingredient/L or 1130 mg of active ingredient/L) of a sulfentrazone granular wettable powder (a granular wettable powder containing 75% of sulfentrazone, trade name: Cover, manufactured by DuPont), or an aqueous diluted solution (113 mg/L or 226 mg/L) of saflufenacil was uniformly sprayed on the soil surface with a sprayer so as to apply the amount described in Tables 7 to 9. […] On day 7 after sowing the seeds of cotton and ivyleaf morningglory, the herbicidal effect was investigated.

Ivyleaf morningglory [2] = experiment: Herbicidal effect in pots sown with ethaboxam-treated corn seeds, PPO inhibitor sprayed on soil (Example 2); settings: corn pot, day 7 after sowing, scale 0 to 100
Protocol: In a plastic cup of 100 mm in inside diameter and 40 mm in height, 13.4 mg of an ethaboxam suspension (a suspension containing 34. 6% of ethaboxam, manufactured by Valent USA Corp.) and 40 corn seeds were placed. The plastic cup was shaken by the hand so that the ethaboxam suspension was attached to the corn seeds. The weight of 40 corn seeds was 15.5 g, and the amount of ethaboxam by the above treatment was calculated as 30 g per 100 kg of the corn seeds. In the same manner, 138.7 mg of the ethaboxam suspension was attached to 40 corn seeds. The weight of 40 corn seeds was 16.0 g, and the amount of ethaboxam by the above treatment was calculated as 300 g per 100 kg of the corn seeds. A soil was packed in a plastic pot of 120 mm in inside diameter×80 mm in height. The above treated corn seeds were sown in this pot at a rate of two seeds per pot, and the seeds of ivyleaf morningglory were sown at a rate of four seeds per pot. On the day of sowing the corn seeds and after sowing the corn seeds, an aqueous diluted solution (113 mg of active ingredient/L or 225 mg of active ingredient/L) of a flumioxazin granular wettable powder (a granular wettable powder containing 51% of flumioxazin, trade name: Valor SX, manufactured by Valent USA), an aqueous diluted solution (226 mg of active ingredient/L or 1130 mg of active ingredient/L) of a sulfentrazone granular wettable powder (a granular wettable powder containing 75% of sulfentrazone, trade name: Cover, manufactured by DuPont), or an aqueous diluted solution (113 mg/L or 226 mg/L) of saflufenacil was uniformly sprayed on the soil surface with a sprayer so as to apply the amount described in Tables 4 to 6. […] On day 7 after sowing the seeds of corn and ivyleaf morningglory, the herbicidal effect was investigated.

Ivyleaf morningglory [3] = experiment: Herbicidal effect in pots sown with ethaboxam-treated soybean seeds, PPO inhibitor sprayed on soil (Example 1); settings: soybean pot, day 7 after sowing, scale 0 to 100
Protocol: In a plastic cup of 100 mm in inside diameter and 40 mm in height, 10.5 mg of an ethaboxam suspension (a suspension containing 34.6% of ethaboxam, manufactured by Valent USA Corp.) and 40 soybean seeds were placed. The plastic cup was shaken by the hand so that the ethaboxam suspension was attached to the soybean seeds. The weight of 40 soybean seeds was 12.1 g, and the amount of ethaboxam by the above treatment was calculated as 30 g per 100 kg of the soybean seeds. In the same manner, 104.9 mg of the ethaboxam suspension was attached to 40 soybean seeds. The weight of 40 soybean seeds was 12.1 g, and the amount of ethaboxam by the above treatment was calculated as 300 g per 100 kg of the soybean seeds. A soil was packed in a plastic pot of 120 mm in inside diameter×80 mm in height. The above treated soybean seeds were sown in this pot at a rate of two seeds per pot, and the seeds of ivyleaf morningglory were sown at a rate of four seeds per pot. On the day of sowing the soybean seeds and after sowing the soybean seeds, an aqueous diluted solution (113 mg of active ingredient/L or 225 mg of active ingredient/L) of a flumioxazin granular wettable powder (a granular wettable powder containing 51% of flumioxazin, trade name: Valor SX, manufactured by Valent USA), an aqueous diluted solution (226 mg of active ingredient/L or 1130 mg of active ingredient/L) of a sulfentrazone granular wettable powder (a granular wettable powder containing 75% of sulfentrazone, trade name: Cover, manufactured by DuPont), or an aqueous diluted solution (113 mg/L or 226 mg/L) of saflufenacil was uniformly sprayed on the soil surface with a sprayer so as to apply the amount described in Tables 1 to 3. […] On day 7 after sowing the seeds of soybean and ivyleaf morningglory, the herbicidal effect was investigated.

[4] = no ethaboxam, sulfentrazone 500 g/ha
[5] = no ethaboxam, saflufenacil 100 g/ha
[6] = ethaboxam 30 g/100 kg of seeds, no PPO inhibitor
[7] = ethaboxam 300 g/100 kg of seeds, no PPO inhibitor
[8] = no ethaboxam, flumioxazin 100 g/ha

SMILES: Cc1nn(-c2cc(NS(C)(=O)=O)c(Cl)cc2Cl)c(=O)n1C(F)F [sulfentrazone]
- Herbicidal effect Ivyleaf morningglory (Ivyleaf morningglory [1]; [4]): 40
- Herbicidal effect Ivyleaf morningglory (Ivyleaf morningglory [2]; no ethaboxam, sulfentrazone 100 g/ha): 30
- Herbicidal effect Ivyleaf morningglory (Ivyleaf morningglory [2]; [4]): 70

SMILES: CC(C)N(C)S(=O)(=O)NC(=O)c1cc(-n2c(=O)cc(C(F)(F)F)n(C)c2=O)c(F)cc1Cl [saflufenacil]
- Herbicidal effect Ivyleaf morningglory (Ivyleaf morningglory [1]; no ethaboxam, saflufenacil 50 g/ha): 20
- Herbicidal effect Ivyleaf morningglory (Ivyleaf morningglory [1]; [5]): 70
- Herbicidal effect Ivyleaf morningglory (Ivyleaf morningglory [3]; [5]): 50

SMILES: CCNc1nc(CC)c(C(=O)NC(C#N)c2cccs2)s1 (centres unmarked) [ethaboxam]
- Herbicidal effect Ivyleaf morningglory (Ivyleaf morningglory [1]; [6]): 0
- Herbicidal effect Ivyleaf morningglory (Ivyleaf morningglory [1]; [7]): 0
- Herbicidal effect Ivyleaf morningglory (Ivyleaf morningglory [3]; [6]): 0
- Herbicidal effect Ivyleaf morningglory (Ivyleaf morningglory [3]; [7]): 0
- Herbicidal effect Ivyleaf morningglory (Ivyleaf morningglory [2]; [6]): 0
- Herbicidal effect Ivyleaf morningglory (Ivyleaf morningglory [2]; [7]): 0

SMILES: C#CCN1C(=O)COc2cc(F)c(N3C(=O)C4=C(CCCC4)C3=O)cc21 [flumioxazin]
- Herbicidal effect Ivyleaf morningglory (Ivyleaf morningglory [1]; [8]): 30
- Herbicidal effect Ivyleaf morningglory (Ivyleaf morningglory [2]; [8]): 30
